One assay has as its system phospho-Akt. Kind of assay: Phospho-Akt immunoblotting in A549 cells. Type of assay: cell-based, human. As for the experimental part: (§1) A549 cells were incubated for 24 or 48 h with or without FTS, as described above, and then lysed with lysis buffer as described in Haklai, R., Gana-Weisz, M., Elad, G., et al., Biochemistry 37:1306-14 (1998). The apparent amounts of K-Ras-GTP in 0.5 mg protein of total cell lysates were determined by the glutathione-S-transferase (GST)-RBD (Ras-binding domain of Raf) pull-down assay, as described in (Elad-Sfadia, G., Haklai, R., Ballan, E., Gabius, H. J., Kloog, Y., J Biol Chem 277:37169-75 (2002). The apparent amounts of Rac1-GTP and of RhoA-GTP, each in 2 mg protein of total cell lysates, were determined, respectively, by pull-down assays with GST-PBD (Rac1-binding domain of PAK1)-conjugated and GST-Rhotekin BD (Rho-binding domain of Rhotekin)-conjugated beads [Benard, V., Bohl, B. P., Bokoch, G. M, J Biol Chem 274:13198-204 (1999); Fiordalisi, J. J., Keller, P. J., Cox, A. D., Cancer Res 66:3153-61 (2006). […] Levels of phospho-ERK and phospho-Akt were determined by immunoblotting [Haklai, R., Gana-Weisz, M., Elad, G., et al., supra.] using rabbit anti phospho-ERK1/2 Ab (Santa Cruz Biotechnology, Santa Cruz, Calif.) and rabbit anti phospho-Akt Ab (Cell Signaling, Beverly, Mass.). Protein bands were visualized by enhanced chemiluminescence and quantified by densitometry using ImageJ computer software (National institutes of Health, Bethesda, Md.). […]

A further assay has as its system phospho-ERK. Kind of assay: Phospho-ERK immunoblotting in A549 cells. Type of assay: cell-based, human. As for the experimental part: as §1
The subject of the next assay is Rac1-GTP. The experiment in a line: Rac1-GTP pull-down assay in A549 cells. Type of assay: cell-based, human. As for the experimental part: as §1
The test system of another assay is HTB-58 cells. Kind of assay: HTB-58-cell-implanted nude mouse model, tumor growth. As to conditions: 10 mg/kg FTS i.p. daily. It is filed as in vivo, nude mice. As for the experimental part: (§2) Nude mice (6 weeks old) were housed in barrier facilities on a 12-h light/dark cycle. Food and water were supplied ad libitum. On day zero, A549 or HTB-58 cells (5×10^6 cells in 0.1 ml PBS) were implanted subcutaneously (s.c.) just above the right femoral joint. After 5 or 11 days the mice were separated randomly into control groups that had received only the vehicle and FTS-treated groups. Daily FTS treatments were administered either intraperitoneally (i.p.) or orally. Tumor volumes or weights were determined as described in Barkan, B., Starinsky, S., Friedman, E., Stein, R., Kloog, Y., Clin Cancer Res 12:5533-42 (2006). Gemcitabine treatment (36 mg/kg, i.p.) was administered every 4 days.
Tumor volume measured 14 days after cell implantation in that group was 0.02±0.045 cm^3 compared to 0.09±0.08 cm^3 in the vehicle-treated controls (P<0.05).

The next assay relates to A549 cells. Kind of assay: A549-cell-implanted nude mouse model, tumor growth. It is filed as in vivo, nude mice. As for the experimental part:
as §2
To determine whether FTS inhibited tumor growth in vivo, experiments were conducted using a nude mouse model. The lung cancer cells were implanted s.c. above the right femoral joint and the mice were then treated with FTS. In a first experiment, the effect of i.p. administration of FTS on tumor growth in A549 cells was assessed. Treatment was started 5 days after cell implantation, by which time the tumors were palpable. Tumor volumes were determined 24 days after implantation in two groups of mice (n=8) that had received daily i.p. administration of either the vehicle (control) or 10 mg/kg FTS.
In an additional set of experiments, the A549-cell-implanted nude mouse model was used to examine the effect of orally administered FTS on tumor growth. First, cells were implanted as described above and daily oral treatment with FTS (50 mg/kg; n=6) or vehicle (n=5) was started either 11 days (FIG. 14C) or 6 days (FIG. 14D) after implantation. […] Next, the effects of orally administered FTS, alone or in combination with gemcitabine, on A549-cell tumor growth was examined (FIG. 14D). Six days after cell implantation, mice were divided into four groups (n=8 per group) and treated orally with vehicle alone (control), FTS alone (60 mg/kg), vehicle and gemcitabine (36 mg/kg, i.p. every 4 days), or FTS and gemcitabine. Treatments with gemcitabine began 1 week after FTS treatment was started.

Where [1] appears, read: 50 mg/kg FTS oral daily from day 11, after 16 days of treatment (FIG. 14C).
The mark [2] stands for this setting: 60 mg/kg FTS oral alone, from day 6 (FIG. 14D).

Consider `CC(C)=CCC/C(C)=C/CC/C(C)=C/CSc1ccccc1C(=O)O` [FTS, S-farnesylthiosalicylic acid], for which, in the assay on phospho-Akt, the “inhibition of phospho-Akt level” value worked out at 58±6%. Further, the “inhibition of phospho-ERK level” value in the assay with phospho-ERK was determined as 33±2%. Also, the “effect on the amount of active Rac1-GTP” value in the assay with Rac1-GTP was “no effect”. Further, the “inhibition of tumor growth” value in the assay on HTB-58 cells is listed as 76.4±48.8%. The molecule further registered a tumor volume in the assay with HTB-58 cells (14 days after cell implantation) of 0.02±0.045 cm^3. The “inhibition of tumor growth relative to control (tumor volume)” value with A549 cells (10 mg/kg FTS i.p. daily from day 5, 24 days after implantation) stood at 53.8%. In the assay on A549 cells (setting [1]), the “inhibition in tumor growth” value is 53.7±19.1% and the “tumor weight (mean±SD)” value amounted to 0.4 ± 0.19 g. In addition, in the assay on A549 cells (setting [2]), the “inhibition in tumor growth” value was 46.2±16.3% and the “tumor weight (mean±SD)” value worked out at 0.49 ± 0.15 g.

For the origin of these results see patent publication US8232253B2, “Treatment of lung cancer” (Ramot at Tel-Aviv University Ltd., priority 2006, dated 2012).
